Numbered stars: 1 amine (or outer) side, 2 acyl side, 3 side chain; on linkers, the order of the positions; unused ones are H or OH. Square brackets hold non-standard residues; d marks the D form. Peptide text beside a SMILES is read from it. X1 = CC(C)C[C@H](CC(=O)CN[*:1])C(=O)[*:2]; pGlu = O=C1CC[C@@H](C(=O)O)N1
Species on record: Rattus norvegicus
Assay: Inhibition of the degradation of [125IBH]-SP6-11 in rat hypothalamus preparations
Assay type: functional

SMILES	IC50
CSCC[C@H](NC(=O)[C@H](CC(C)C)NC(=O)CNC(=O)/C(=C\c1ccccc1)CC(=O)[C@H](Cc1ccccc1)NC(=O)[C@H]1CCC(=O)N1)C(N)=O	1.8 µM
CCOC(=O)/C(=C\c1ccccc1)CC(=O)[C@H](Cc1ccccc1)NC(=O)c1ccccc1	> 200 µM
CSCC[C@H](NC(=O)[C@H](CC(C)C)NC(=O)CNC(=O)[C@@H](CC(=O)[C@H](Cc1ccccc1)NC(=O)[C@H]1CCC(=O)N1)Cc1ccccc1)C(N)=O	30 µM
CCOC(=O)/C(=C\c1ccccc1)CC(=O)[C@@H](N)Cc1ccccc1	> 200 µM
COC(=O)CCC(=O)[C@H](Cc1ccccc1)NC(=O)[C@H](Cc1ccccc1)NC(=O)[C@H]1CCC(=O)N1	> 200 µM
COC(=O)CCC(=O)[C@@H](N)Cc1ccccc1	> 200 µM
O=C1CC[C@H](C(=O)N[C@@H](Cc2ccccc2)C(=O)C/C(=C/c2ccccc2)C(=O)O)N1	> 200 µM
CSCC[C@H](NC(=O)[C@@H](CC(=O)CNC(=O)[C@H](Cc1ccccc1)NC(=O)[C@H](Cc1ccccc1)NC(=O)[C@@H]1CCC(=O)N1)CC(C)C)C(N)=O ([pGlu]FF[X1]M-NH2)	50 µM
CCOC(=O)/C(=C\c1ccccc1)CC(=O)[C@H](Cc1ccccc1)NC(=O)[C@H]1CCC(=O)N1	> 200 µM
